How the values were obtained:
Conditions in all cases: 48 h
NOMO1 [1] = experiment: cell viability relative to DMSO control; higher = less cytotoxic
Method in brief: (§1)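 Leukemia cells (NOMO1 or SEM, 500 cells/well; P12-Ichikawa, 1000 cells/well) were seeded in 5 μl in 1536-well plates after at least four passages of adaptation to each medium. They received library compounds in DMSO by pin dosing, 11 threefold points from 47 μM to 0.79 nM. Luminescence with CellTiter-Glo One was read after 48 h at 37°C. Viability is stated per plate relative to DMSO wells, with cell-free wells as background.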

P12-Ichikawa [2] = experiment: as above
Method in brief: as §1

SEM cells [3] = experiment: as above
Method in brief: as §1

NOMO1 [4] = experiment: AUC of viability dose-response curve (% viability x log10 dose units); higher = less sensitive
Method in brief: (§2)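 Leukemia cells adapted to each medium were seeded at 500 or 1000 cells/well in 1536-well plates and dosed with library compounds in DMSO at 11 threefold doses from 47 μM to 0.79 nM for 48 h at 37°C. CellTiter-Glo One luminescence was normalised per plate to DMSO and cell-free wells, then fitted with a four-parameter log-logistic model over log10 doses. Area under the curve was taken from this fit by the trapezoidal rule, with curves above full viability scaled and curves failing quality control removed.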

P12-Ichikawa [5] = experiment: as above
Method in brief: as §2

SEM cells [6] = experiment: as above
Method in brief: as §2

N#CC(=C(/N)Sc1ccccc1N)/C(C#N)=C(\N)Sc1ccccc1N
cell viability [%]
Conditions | NOMO1 [1] | P12-Ichikawa [2] | SEM cells [3]
HPLM + 10% dialyzed FBS, 0.000781 µM | 118 | 115 | 95.9
HPLM + 10% dialyzed FBS, 0.00234 µM | 119 | 121 | 101
HPLM + 10% dialyzed FBS, 0.00702 µM | 122 | 120 | 129
HPLM + 10% dialyzed FBS, 0.0211 µM | 128 | 128 | 133
HPLM + 10% dialyzed FBS, 0.0632 µM | 134 | 131 | 116
HPLM + 10% dialyzed FBS, 0.19 µM | 140 | 125 | 123
HPLM + 10% dialyzed FBS, 0.569 µM | 130 | 131 | 111
HPLM + 10% dialyzed FBS, 1.71 µM | 101 | 120 | 113
HPLM + 10% dialyzed FBS, 5.12 µM | 107 | 126 | 94.1
HPLM + 10% dialyzed FBS, 15.4 µM | 90.8 | 124 | 100
HPLM + 10% dialyzed FBS, 46.1 µM | 71 | 111 | 83
RPMI 5 mM glucose + 10% FBS, 0.000781 µM | 115 | – | –
RPMI 5 mM glucose + 10% FBS, 0.00234 µM | 115 | – | –
RPMI 5 mM glucose + 10% FBS, 0.00702 µM | 121 | – | –
RPMI 5 mM glucose + 10% FBS, 0.0211 µM | 120 | – | –
RPMI 5 mM glucose + 10% FBS, 0.0632 µM | 120 | – | –
RPMI 5 mM glucose + 10% FBS, 0.19 µM | 121 | – | –
RPMI 5 mM glucose + 10% FBS, 0.569 µM | 118 | – | –
RPMI 5 mM glucose + 10% FBS, 1.71 µM | 117 | – | –
RPMI 5 mM glucose + 10% FBS, 5.12 µM | 114 | – | –
RPMI 5 mM glucose + 10% FBS, 15.4 µM | 120 | – | –
RPMI 5 mM glucose + 10% FBS, 46.1 µM | 97.8 | – | –
RPMI 5 mM glucose + 10% dialyzed FBS, 0.000781 µM | – | – | 116
RPMI 5 mM glucose + 10% dialyzed FBS, 0.00234 µM | – | – | 120
RPMI 5 mM glucose + 10% dialyzed FBS, 0.00702 µM | – | – | 139
RPMI 5 mM glucose + 10% dialyzed FBS, 0.0211 µM | – | – | 151
RPMI 5 mM glucose + 10% dialyzed FBS, 0.0632 µM | – | – | 113
RPMI 5 mM glucose + 10% dialyzed FBS, 0.19 µM | – | – | 118
RPMI 5 mM glucose + 10% dialyzed FBS, 0.569 µM | – | – | 111
RPMI 5 mM glucose + 10% dialyzed FBS, 1.71 µM | – | – | 98.2
RPMI 5 mM glucose + 10% dialyzed FBS, 5.12 µM | – | – | 93.2
RPMI 5 mM glucose + 10% dialyzed FBS, 15.4 µM | – | – | 89
RPMI 5 mM glucose + 10% dialyzed FBS, 46.1 µM | – | – | 57.3

AUC of viability dose-response curve
Conditions | NOMO1 [4] | P12-Ichikawa [5] | SEM cells [6]
HPLM + 10% dialyzed FBS | 436 | 474 | 452
RPMI 5 mM glucose + 10% FBS | 473 | 469 | 444
RPMI 5 mM glucose + 10% dialyzed FBS | 444 | 472 | 410

CN(C)C[C@@H]1CC[N]2C=C(C3=C2C=CC=C3)C/4=C(/C(=O)NC4=O)C5=C[N](CCO1)C6=C5C=CC=C6
cell viability [%]
Conditions | NOMO1 [1] | P12-Ichikawa [2] | SEM cells [3]
HPLM + 10% dialyzed FBS, 0.000781 µM | 88.8 | 99.6 | 87.6
HPLM + 10% dialyzed FBS, 0.00234 µM | 111 | 98.3 | 56.8
HPLM + 10% dialyzed FBS, 0.00702 µM | 109 | 100 | 105
HPLM + 10% dialyzed FBS, 0.0211 µM | 96.6 | 106 | 110
HPLM + 10% dialyzed FBS, 0.0632 µM | 102 | 105 | 97.5
HPLM + 10% dialyzed FBS, 0.19 µM | 91.4 | 110 | 99.6
HPLM + 10% dialyzed FBS, 0.569 µM | 94 | 107 | 91.2
HPLM + 10% dialyzed FBS, 1.71 µM | 88.7 | 100 | 81.4
HPLM + 10% dialyzed FBS, 5.12 µM | 95.4 | 101 | 79.2
HPLM + 10% dialyzed FBS, 15.4 µM | 85.3 | 97.5 | 56.8
HPLM + 10% dialyzed FBS, 46.1 µM | 27.7 | 30.7 | 2.57
RPMI 5 mM glucose + 10% FBS, 0.000781 µM | 98.3 | 92.9 | 118
RPMI 5 mM glucose + 10% FBS, 0.00234 µM | 85.9 | 94.8 | 59.2
RPMI 5 mM glucose + 10% FBS, 0.00702 µM | 89.3 | 100 | 97.3
RPMI 5 mM glucose + 10% FBS, 0.0211 µM | 87.4 | 98.6 | 97
RPMI 5 mM glucose + 10% FBS, 0.0632 µM | 91.7 | 108 | 99.2
RPMI 5 mM glucose + 10% FBS, 0.19 µM | 92.9 | 104 | 119
RPMI 5 mM glucose + 10% FBS, 0.569 µM | 93 | 95.7 | 105
RPMI 5 mM glucose + 10% FBS, 1.71 µM | 87.5 | 96.2 | 89.1
RPMI 5 mM glucose + 10% FBS, 5.12 µM | 86.1 | 97.6 | 77.7
RPMI 5 mM glucose + 10% FBS, 15.4 µM | 83.5 | 83.4 | 49.6
RPMI 5 mM glucose + 10% FBS, 46.1 µM | 73.3 | 55.3 | 2.71
RPMI 5 mM glucose + 10% dialyzed FBS, 0.000781 µM | 90.6 | 110 | 97.7
RPMI 5 mM glucose + 10% dialyzed FBS, 0.00234 µM | 84.2 | 106 | 47.9
RPMI 5 mM glucose + 10% dialyzed FBS, 0.00702 µM | 99.8 | 108 | 102
RPMI 5 mM glucose + 10% dialyzed FBS, 0.0211 µM | 93.4 | 109 | 105
RPMI 5 mM glucose + 10% dialyzed FBS, 0.0632 µM | 99.6 | 103 | 107
RPMI 5 mM glucose + 10% dialyzed FBS, 0.19 µM | 97.3 | 102 | 105
RPMI 5 mM glucose + 10% dialyzed FBS, 0.569 µM | 92.3 | 114 | 93.7
RPMI 5 mM glucose + 10% dialyzed FBS, 1.71 µM | 85.8 | 117 | 87.2
RPMI 5 mM glucose + 10% dialyzed FBS, 5.12 µM | 83.7 | 105 | 73.2
RPMI 5 mM glucose + 10% dialyzed FBS, 15.4 µM | 77.7 | 93.7 | 51.8
RPMI 5 mM glucose + 10% dialyzed FBS, 46.1 µM | 67.7 | 58.9 | 2.49

AUC of viability dose-response curve
Conditions | NOMO1 [4] | P12-Ichikawa [5] | SEM cells [6]
HPLM + 10% dialyzed FBS | 443 | 458 | 391
RPMI 5 mM glucose + 10% FBS | 423 | 453 | 412
RPMI 5 mM glucose + 10% dialyzed FBS | 425 | 459 | 393

CCNC(=O)[C@H]1O[C@@H](n2cnc3c(N)nc(NCCc4ccc(CCC(=O)O)cc4)nc32)[C@H](O)[C@@H]1O
cell viability [%]
Conditions | NOMO1 [1] | P12-Ichikawa [2] | SEM cells [3]
HPLM + 10% dialyzed FBS, 0.000781 µM | 104 | 108 | 100
HPLM + 10% dialyzed FBS, 0.00234 µM | 83.1 | 97.9 | 90.7
HPLM + 10% dialyzed FBS, 0.00702 µM | 98.9 | 101 | 106
HPLM + 10% dialyzed FBS, 0.0211 µM | 103 | 106 | 111
HPLM + 10% dialyzed FBS, 0.0632 µM | 95.7 | 109 | 115
HPLM + 10% dialyzed FBS, 0.19 µM | 104 | 101 | 107
HPLM + 10% dialyzed FBS, 0.569 µM | 96.6 | 106 | 107
HPLM + 10% dialyzed FBS, 1.71 µM | 95.6 | 103 | 110
HPLM + 10% dialyzed FBS, 5.12 µM | 87.3 | 104 | 106
HPLM + 10% dialyzed FBS, 15.4 µM | 96.6 | 96.8 | 104
HPLM + 10% dialyzed FBS, 46.1 µM | 91 | 96.1 | 78.8
RPMI 5 mM glucose + 10% FBS, 0.000781 µM | 104 | 105 | 83.6
RPMI 5 mM glucose + 10% FBS, 0.00234 µM | 91.6 | 102 | 33.4
RPMI 5 mM glucose + 10% FBS, 0.00702 µM | 94 | 96.2 | 91.4
RPMI 5 mM glucose + 10% FBS, 0.0211 µM | 102 | 102 | 97.6
RPMI 5 mM glucose + 10% FBS, 0.0632 µM | 89.4 | 102 | 103
RPMI 5 mM glucose + 10% FBS, 0.19 µM | 89.3 | 97.5 | 108
RPMI 5 mM glucose + 10% FBS, 0.569 µM | 86.9 | 99.9 | 110
RPMI 5 mM glucose + 10% FBS, 1.71 µM | 90.6 | 99.6 | 88.1
RPMI 5 mM glucose + 10% FBS, 5.12 µM | 89.9 | 96.4 | 92
RPMI 5 mM glucose + 10% FBS, 15.4 µM | 90.8 | 93.3 | 89.6
RPMI 5 mM glucose + 10% FBS, 46.1 µM | 84.1 | 92.2 | 62.3
RPMI 5 mM glucose + 10% dialyzed FBS, 0.000781 µM | 89.3 | 106 | 88.3
RPMI 5 mM glucose + 10% dialyzed FBS, 0.00234 µM | 104 | 98.9 | 84.3
RPMI 5 mM glucose + 10% dialyzed FBS, 0.00702 µM | 100 | 107 | 101
RPMI 5 mM glucose + 10% dialyzed FBS, 0.0211 µM | 93.5 | 99.8 | 102
RPMI 5 mM glucose + 10% dialyzed FBS, 0.0632 µM | 92.3 | 105 | 116
RPMI 5 mM glucose + 10% dialyzed FBS, 0.19 µM | 90.8 | 97.2 | 116
RPMI 5 mM glucose + 10% dialyzed FBS, 0.569 µM | 96.9 | 108 | 117
RPMI 5 mM glucose + 10% dialyzed FBS, 1.71 µM | 88.7 | 91.3 | 96.3
RPMI 5 mM glucose + 10% dialyzed FBS, 5.12 µM | 94.5 | 101 | 109
RPMI 5 mM glucose + 10% dialyzed FBS, 15.4 µM | 78.8 | 95.9 | 99
RPMI 5 mM glucose + 10% dialyzed FBS, 46.1 µM | 87.8 | 93.3 | 74.8

AUC of viability dose-response curve
Conditions | NOMO1 [4] | P12-Ichikawa [5] | SEM cells [6]
HPLM + 10% dialyzed FBS | 458 | 465 | 470
RPMI 5 mM glucose + 10% FBS | 437 | 456 | 421
RPMI 5 mM glucose + 10% dialyzed FBS | 442 | 462 | 469

— the supplement of paper PMC11451515
